Columns and labels:
ORYSAT (Rice, Tebonnet) [1] = assay: Preemergence herbicidal evaluation; type: in vivo, Oryza sativa, (L.) Tebonnet; conditions: preemergence, rated 4-5 weeks after treatment
[2] = tested on: IPOHE (Ipomoea hederacea); assay: Postemergence herbicidal evaluation; type: in vivo, (L.) Jacq.; conditions: postemergence
Outline: (§1)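 Visual 0–9 injury scores versus control plants, covering stand, vigour, malformation, size, chlorosis and general appearance, taken four to five weeks post-spray and averaged over replicate tests. Plants were sprayed at roughly two weeks old and held on greenhouse benches.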

[3] = tested on: ABUTH (Abutilon theophrasti); assay: Preemergence herbicidal evaluation; type: in vivo, Medic.; conditions: preemergence, rated 4-5 weeks after treatment
[4] = tested on: TRZAWR (Wheat, Winter, cv Riband); assay: Postemergence herbicidal evaluation; type: in vivo, Triticum aestivum; conditions: postemergence
Outline: as §1

[5] = tested on: ECHCG (Echinochloa crus-galli); assay: Postemergence herbicidal evaluation; type: in vivo, (L.) Beau; conditions: postemergence
Outline: as §1

[6] = tested on: CASOB (Cassia obtusifolia); assay: Postemergence herbicidal evaluation; type: in vivo, L.; conditions: postemergence
Outline: as §1

[7] = tested on: AMBEL (Ambrosia artemisifolia); assay: Postemergence herbicidal evaluation; type: in vivo, L.; conditions: postemergence
Outline: as §1

[8] = tested on: CHEAL (Chenopodium album); assay: Postemergence herbicidal evaluation; type: in vivo, L.; conditions: postemergence
Outline: as §1

[9] = tested on: ABUTH (Abutilon theophrasti); assay: Postemergence herbicidal evaluation; type: in vivo, Medic.; conditions: postemergence
Outline: as §1

ORYSAT (Rice, Tebonnet) [10] = assay: Postemergence herbicidal evaluation; type: in vivo, Oryza sativa, (L.) Tebonnet; conditions: postemergence
Outline: as §1

[11] = tested on: CASOB (Cassia obtusifolia); assay: Preemergence herbicidal evaluation; type: in vivo, L.; conditions: preemergence, rated 4-5 weeks after treatment
Outline: (§2)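 Rating 0–9, visual, vs control; 4–5 wk after spraying seeded cups with compound in aq. acetone; conventional greenhouse care.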

[12] = tested on: AMBEL (Ambrosia artemisifolia); assay: Preemergence herbicidal evaluation; type: in vivo, L.; conditions: preemergence, rated 4-5 weeks after treatment
Outline: as §2

[13] = tested on: CHEAL (Chenopodium album); assay: Preemergence herbicidal evaluation; type: in vivo, L.; conditions: preemergence, rated 4-5 weeks after treatment
Outline: as §2

[14] = tested on: SAGPY (Sagittaria pygmaea); assay: Flooded paddy, preemergence weed control; type: in vivo, L.; conditions: rated 3-4 weeks after treatment, 0-9 rating scale
Outline: (§3)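 In this preemergence paddy assay, weed seeds or organs are sown at up to 0.5 cm in silt loam and covered by 1.5–3 cm of water for the full test period. After treatment the pots are kept in a greenhouse, and herbicidal effect is rated 0-9 visually against a control.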

ORYSAT (Rice, Tebonnet) [15] = assay: Flooded paddy, post-transplant rice tolerance; type: in vivo, Oryza sativa, (L.) Tebonnet; conditions: flooded paddy, post-transplant rice, rated 3-4 weeks after treatment, 0-9 rating scale
Outline: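 Scores (0-9) reflect visual injury relative to untreated plants in flooded silt loam. Each pot held two transplanted ten-day-old seedlings under 1.5 to 3 cm standing water in the greenhouse.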

[16] = tested on: ECHORC (Echinochloa oryzoides); assay: Flooded paddy, preemergence weed control; type: in vivo, Echinochloa oryzoides (Ard.) Fritsch.; conditions: rated 3-4 weeks after treatment, 0-9 rating scale
Outline: as §3

ZEAMX (Corn, Field) = assay: Postemergence herbicidal evaluation; type: in vivo, Zea mays, L.; conditions: postemergence
Outline: as §1

SMILES	Preemergence herbicidal rating ORYSAT (ORYSAT (Rice, Tebonnet) [1]; rate 0.0620 kg/ha)	Preemergence herbicidal rating ORYSAT (ORYSAT (Rice, Tebonnet) [1]; rate 0.1250 kg/ha)	Preemergence herbicidal rating ORYSAT (ORYSAT (Rice, Tebonnet) [1]; rate 0.2500 kg/ha)	IPOHE herbicidal rating ([2]; rate 0.0320 kg/ha)	IPOHE herbicidal rating ([2]; rate 0.0620 kg/ha)	Preemergence herbicidal rating ABUTH ([3]; rate 0.0620 kg/ha)	Preemergence herbicidal rating ABUTH ([3]; rate 0.1250 kg/ha)	Preemergence herbicidal rating ABUTH ([3]; rate 0.2500 kg/ha)	TRZAWR herbicidal rating ([4]; rate 0.0320 kg/ha)	TRZAWR herbicidal rating ([4]; rate 0.0620 kg/ha)	ECHCG herbicidal rating ([5]; rate 0.0320 kg/ha)	ECHCG herbicidal rating ([5]; rate 0.0620 kg/ha)	CASOB herbicidal rating ([6]; rate 0.0320 kg/ha)	CASOB herbicidal rating ([6]; rate 0.0620 kg/ha)	AMBEL herbicidal rating ([7]; rate 0.0320 kg/ha)	AMBEL herbicidal rating ([7]; rate 0.0620 kg/ha)	CHEAL herbicidal rating ([8]; rate 0.0320 kg/ha)	CHEAL herbicidal rating ([8]; rate 0.0620 kg/ha)	ABUTH herbicidal rating ([9]; rate 0.0320 kg/ha)	ABUTH herbicidal rating ([9]; rate 0.0620 kg/ha)	further results
Cn1c(C(F)(F)F)cc(=O)n(-c2ccc3snc(C4OCC(CS(C)(=O)=O)O4)c3c2)c1=O (single isomer, unassigned) [Compound 86, 1-methyl-3-[3-[4-[(methylsulfonyl)methyl]-1,3-dioxolan-2-yl]-1,2-benzisothiazol-5-yl]-6-(trifluoromethyl)uracil]	5.0	7.0	9.0	9.0	9.0	9.0	9.0	9.0	2.5	3.0	4.0	5.0	7.0	9.0	9.0	9.0	9.0	9.0	9.0	9.0	ORYSAT herbicidal rating (ORYSAT (Rice, Tebonnet) [10]; rate 0.0320 kg/ha): 4.0; ORYSAT herbicidal rating (ORYSAT (Rice, Tebonnet) [10]; rate 0.0620 kg/ha): 5.5; Preemergence herbicidal rating CASOB ([11]; rate 0.0620 kg/ha): 4.0; Preemergence herbicidal rating CASOB ([11]; rate 0.1250 kg/ha): 9.0; Preemergence herbicidal rating CASOB ([11]; rate 0.2500 kg/ha): 9.0; Preemergence herbicidal rating AMBEL ([12]; rate 0.0620 kg/ha): 9.0; Preemergence herbicidal rating AMBEL ([12]; rate 0.1250 kg/ha): 9.0; Preemergence herbicidal rating AMBEL ([12]; rate 0.2500 kg/ha): 9.0; Preemergence herbicidal rating CHEAL ([13]; rate 0.0620 kg/ha): 9.0; Preemergence herbicidal rating CHEAL ([13]; rate 0.1250 kg/ha): 9.0; Preemergence herbicidal rating CHEAL ([13]; rate 0.2500 kg/ha): 9.0; SAGPY herbicidal rating ([14]; rate 0.0320 kg/ha): 0.0; SAGPY herbicidal rating ([14]; rate 0.1250 kg/ha): 0.0; ORYSAT herbicidal rating (transplanted rice tolerance) (ORYSAT (Rice, Tebonnet) [15]; rate 0.0320 kg/ha): 0.0; ORYSAT herbicidal rating (transplanted rice tolerance) (ORYSAT (Rice, Tebonnet) [15]; rate 0.1250 kg/ha): 5.0; ECHORC herbicidal rating ([16]; rate 0.0320 kg/ha): 0.0; ECHORC herbicidal rating ([16]; rate 0.1250 kg/ha): 3.0; ZEAMX herbicidal rating (ZEAMX (Corn, Field); rate 0.0320 kg/ha): 4.0; ZEAMX herbicidal rating (ZEAMX (Corn, Field); rate 0.0620 kg/ha): 4.0
Cn1c(C(F)(F)F)cc(=O)n(-c2ccc3snc(C4OCC(CS(C)(=O)=O)O4)c3c2)c1=O (single isomer, unassigned) [Compound 87, 1-methyl-3-[3-[4-[(methylsulfonyl)methyl]-1,3-dioxolan-2-yl]-1,2-benzisothiazol-5-yl]-6-(trifluoromethyl)uracil]	2.0	3.0	5.0	9.0	9.0	9.0	9.0	9.0	3.0	4.0	3.0	4.0	9.0	9.0	9.0	9.0	9.0	9.0	9.0	9.0	ORYSAT herbicidal rating (ORYSAT (Rice, Tebonnet) [10]; rate 0.0320 kg/ha): 3.0; ORYSAT herbicidal rating (ORYSAT (Rice, Tebonnet) [10]; rate 0.0620 kg/ha): 3.5; Preemergence herbicidal rating CASOB ([11]; rate 0.0620 kg/ha): 6.0; Preemergence herbicidal rating CASOB ([11]; rate 0.1250 kg/ha): 9.0; Preemergence herbicidal rating CASOB ([11]; rate 0.2500 kg/ha): 7.0; Preemergence herbicidal rating AMBEL ([12]; rate 0.0620 kg/ha): 9.0; Preemergence herbicidal rating AMBEL ([12]; rate 0.1250 kg/ha): 9.0; Preemergence herbicidal rating AMBEL ([12]; rate 0.2500 kg/ha): 9.0; Preemergence herbicidal rating CHEAL ([13]; rate 0.0620 kg/ha): 9.0; Preemergence herbicidal rating CHEAL ([13]; rate 0.1250 kg/ha): 9.0; Preemergence herbicidal rating CHEAL ([13]; rate 0.2500 kg/ha): 9.0; SAGPY herbicidal rating ([14]; rate 0.0320 kg/ha): 0.0; SAGPY herbicidal rating ([14]; rate 0.1250 kg/ha): 0.0; ORYSAT herbicidal rating (transplanted rice tolerance) (ORYSAT (Rice, Tebonnet) [15]; rate 0.0320 kg/ha): 0.0; ORYSAT herbicidal rating (transplanted rice tolerance) (ORYSAT (Rice, Tebonnet) [15]; rate 0.1250 kg/ha): 3.0; ECHORC herbicidal rating ([16]; rate 0.0320 kg/ha): 0.0; ECHORC herbicidal rating ([16]; rate 0.1250 kg/ha): 0.0; ZEAMX herbicidal rating (ZEAMX (Corn, Field); rate 0.0320 kg/ha): 3.5; ZEAMX herbicidal rating (ZEAMX (Corn, Field); rate 0.0620 kg/ha): 3.5
Cn1c(C(F)(F)F)cc(=O)n(-c2ccc3snc(C4OCC(C[S+](C)[O-])O4)c3c2)c1=O (stereo not drawn) [Compound 88, 1-methyl-3-[3-[4-[(methylsulfinyl)methyl]-1,3-dioxolan-2-yl]-1,2-benzisothiazol-5-yl]-6-(trifluoromethyl)uracil]	4.0	5.0	8.0	9.0	9.0	9.0	9.0	9.0	3.0	3.5	5.0	5.0	5.0	9.0	9.0	9.0	9.0	9.0	9.0	9.0	ORYSAT herbicidal rating (ORYSAT (Rice, Tebonnet) [10]; rate 0.0320 kg/ha): 4.0; ORYSAT herbicidal rating (ORYSAT (Rice, Tebonnet) [10]; rate 0.0620 kg/ha): 4.0; Preemergence herbicidal rating CASOB ([11]; rate 0.0620 kg/ha): 5.0; Preemergence herbicidal rating CASOB ([11]; rate 0.1250 kg/ha): 9.0; Preemergence herbicidal rating CASOB ([11]; rate 0.2500 kg/ha): 9.0; Preemergence herbicidal rating AMBEL ([12]; rate 0.0620 kg/ha): 9.0; Preemergence herbicidal rating AMBEL ([12]; rate 0.1250 kg/ha): 9.0; Preemergence herbicidal rating AMBEL ([12]; rate 0.2500 kg/ha): 9.0; Preemergence herbicidal rating CHEAL ([13]; rate 0.0620 kg/ha): 9.0; Preemergence herbicidal rating CHEAL ([13]; rate 0.1250 kg/ha): 9.0; Preemergence herbicidal rating CHEAL ([13]; rate 0.2500 kg/ha): 9.0; SAGPY herbicidal rating ([14]; rate 0.0320 kg/ha): 0.0; SAGPY herbicidal rating ([14]; rate 0.1250 kg/ha): 0.0; ORYSAT herbicidal rating (transplanted rice tolerance) (ORYSAT (Rice, Tebonnet) [15]; rate 0.0320 kg/ha): 0.0; ORYSAT herbicidal rating (transplanted rice tolerance) (ORYSAT (Rice, Tebonnet) [15]; rate 0.1250 kg/ha): 5.0; ECHORC herbicidal rating ([16]; rate 0.0320 kg/ha): 0.0; ECHORC herbicidal rating ([16]; rate 0.1250 kg/ha): 0.0; ZEAMX herbicidal rating (ZEAMX (Corn, Field); rate 0.0320 kg/ha): 4.0; ZEAMX herbicidal rating (ZEAMX (Corn, Field); rate 0.0620 kg/ha): 5.0

— patent US6706663B2, “Herbicidal 3-heterocyclic substituted benzisothiazole and benzisoxazole compounds” (Wyeth, priority 2000, dated 2004)
